From patent US8846711B2, “Heterocyclic acrylamides and their use as pharmaceuticals” (Fab Pharma S.A.S., priority 2009, dated 2014)
Converted amounts (≈) assume the structure as drawn.

Tests used:
[1] = biological target: recombinant S. aureus FabI enzyme (Staphylococcus aureus (strain MRSA252), UniProt Q6GI75); test: FabI inhibition, fluorescence based assay; type: biochemical; details: in vitro
Experimental: Compound inhibitory activity of FabI enzyme is measured in vitro by the […] determination using a fluorescence based assay.
The protein FabI from S. aureus is prepared and purified using standard methods for recombinant protein expression after cloning of the gene in a prokaryotic expression vector.
The biochemical activity of the FabI enzyme is assessed using the following method.
The assay buffer “AB” contained 50 mM ADA (N-(2-acetamido)iminodiacetic acid monosodium salt) pH 6.5, 1 mM dithiothreitol, 0.006% Triton-X100 and 50 mM NaCl.
The following components are added in a white polystyrene Costar plate (Ref 3912) up to a final volume of 55.5 μL: 1.5 μL DMSO or inhibitor dissolved in DMSO and 54 μL of a FabI/NADPH/NADP+ mixture in AB. After 60 min of pre-incubation at room temperature, the reaction is started by addition of 5 μL of trans-2-octenoyl N-acetylcysteamine thioester (t-o-NAC) to a final volume of 60.5 μL. This reaction mixture is then composed of 2 nM FabI, 40 μM NADPH (Sigma, N7505), 10 μM NADP+ (Sigma, N5755), 100 μM t-O-NAC and compound at defined concentration. Fluorescence intensity of NADPH (λex=360 nm, […]) is measured immediately after t-O-NAC addition (T0), and approximately 50 min later (T50) by a Fluostar Optima (BMG) so as to achieve ±30% of NADPH conversion. Enzyme activity is calculated by first subtracting TO signal to T50 and then subtracting background signal (FabI=0). Percentages of inhibition are calculated against untreated samples (Inhibitor=0) and IC50 are fitted to a classical Langmuir equilibrium model using XLFIT (IDBS).

[2] = system: S. pneumoniae (ATCC 49619); test: MIC determination using susceptibility method (broth microdilution); type: cell-based; details: Streptococcus pneumoniae, ATCC49619, read-out: MIC (μg/ml) S. pneumoniae (ATCC 49619)
Experimental: (§1) Minimum inhibitory concentrations (MICs) were determined by broth microdilution according to CLSI guidelines (CLSI, M100-20^1, M7-A8^2, M27-A3^3). The compounds were tested in the range from […]. Colonies were taken directly from a second-pass culture plate and prepared to a suspension equivalent to the 0.5 McFarland standard using normal saline. […] The panels were incubated at 35° C. for 16 to 20 hours before reading the MIC endpoints. The compounds of Examples 12, 29, 59, 63 and 66-71 were dissolved in DMSO to make the initial solutions of 5120 μg/ml. These solutions were diluted 1:10 in sterile water to a stock solution of 512 μg/ml. The stock solutions were further diluted into the appropriate broth medium for the sequential dilutions used in the broth microdilution panels. S. pneumoniae was tested in Mueller Hinton (MH) broth with 3% lysed horse blood and C. albicans was tested in RPMI-1640 medium. All other organisms were tested in MH broth.

[3] = system: S. aureus ATCC 29213; test: as above; type: cell-based; details: Staphylococcus aureus, ATCC29213, read-out: MIC (μg/ml) S. aureus ATCC 29213
Experimental: as §1

[4] = system: MSSA (IHMA #555189); test: as above; type: cell-based; details: Staphylococcus aureus, read-out: MIC (μg/ml) MSSA (IHMA #555189)
Experimental: as §1

[5] = system: MRSA (IHMA #510059); test: as above; type: cell-based; details: Staphylococcus aureus, read-out: MIC (μg/ml) MRSA (IHMA #510059)
Experimental: as §1

[6] = system: C. albicans (ATCC 90028); test: as above; type: cell-based; details: Candida albicans, ATCC90028, read-out: MIC (μg/ml) C. albicans (ATCC 90028)
Experimental: as §1

[7] = system: E. faecalis (ATCC 29212); test: as above; type: cell-based; details: Enterococcus faecalis, ATCC29212, read-out: MIC (μg/ml) E. faecalis (ATCC 29212)
Experimental: as §1

[8] = system: E. coli (ATCC 25922); test: as above; type: cell-based; details: Escherichia coli, ATCC25922, read-out: MIC (μg/ml) E. coli (ATCC 25922)
Experimental: as §1

Row | SMILES | IC50 [1] | also measured
1 | CC(Cc1ncccn1)=NOC1CN(C(=O)/C=C/c2cnc3c(c2)CCC(=O)N3)C1 (racemic) [Example 21, 6-{(1E)-3-[3-({[(1E)-1-Methyl-2-pyrimidin-2-ylethylidene]amino}oxy)azetidin-1-yl]-3-oxoprop-1-en-1-yl}-3,4-dihydro-1,8-naphthyridin-2(1H)-one] | 870 nM | 
2 | O=C1CCc2cc(/C=C/C(=O)N3CCC3)cnc2N1 [Example 1, 6-[(1E)-3-Azetidin-1-yl-3-oxoprop-1-en-1-yl]-3,4-dihydro-1,8-naphthyridin-2(1H)-one] | 11000 nM | 
3 | O=C1CCc2cc(/C=C/C(=O)N3CCCC3)cnc2N1 [Example 2, 6-[(1E)-3-Oxo-3-pyrrolidin-1-ylprop-1-en-1-yl]-3,4-dihydro-1,8-naphthyridin-2(1H)-one] | 5500 nM | 
4 | O=C1CCc2cc(/C=C/C(=O)N3CCCCC3)cnc2N1 [Example 3, 6-[(1E)-3-Oxo-3-piperidin-1-ylprop-1-en-1-yl]-3,4-dihydro-1,8-naphthyridin-2(1H)-one] | 9900 nM | 
5 | O=C1CCc2cc(/C=C/C(=O)N3CCC(CCO)CC3)cnc2N1 [Example 4, 6-{(1E)-3-[4-(2-Hydroxyethyl)piperidin-1-yl]-3-oxoprop-1-en-1-yl}-3,4-dihydro-1,8-naphthyridin-2(1H)-one] | 5300 nM | 
6 | O=C1CCc2cc(/C=C/C(=O)N3CCC(COc4ccc(F)cc4)CC3)cnc2N1 [Example 5, 6-[(1E)-3-{[4-(4-Fluorophenoxy)methyl]piperidin-1-yl}-3-oxoprop-1-en-1-yl]-3,4-dihydro-1,8-naphthyridin-2(1H)-one] | 250 nM | 
7 | O=C1CCc2cc(/C=C/C(=O)N3CC(Oc4ccccc4)C3)cnc2N1 [Example 6, 6-[(1E)-3-Oxo-3-(3-phenoxyazetidin-1-yl)prop-1-en-1-yl]-3,4-dihydro-1,8-naphthyridin-2(1H)-one] | 1000 nM | 
8 | O=C1CCc2cc(/C=C/C(=O)N3CCCC3c3ccccc3)cnc2N1 (stereo not shown) [Example 7, 6-[(1E)-3-Oxo-3-(2-phenylpyrrolidin-1-yl)prop-1-en-1-yl]-3,4-dihydro-1,8-naphthyridin-2(1H)-one] | 7100 nM | 
9 | O=C1CCc2cc(/C=C/C(=O)N3CCCC(COc4ccc(F)cc4)C3)cnc2N1 (stereo not shown) [Example 9, 6-[(1E)-3-{[3-(4-Fluorophenoxy)methyl]piperidin-1-yl}-3-oxoprop-1-en-1-yl]-3,4-dihydro-1,8-naphthyridin-2(1H)-one] | 1300 nM | 
10 | Cc1nc(C2CN(C(=O)/C=C/c3cnc4c(c3)CCC(=O)N4)C2)no1 [Example 11, 6-{(1E)-3-[3-(5-Methyl-1,2,4-oxadiazol-3-yl)azetidin-1-yl]-3-oxoprop-1-en-1-yl}-3,4-dihydro-1,8-naphthyridin-2(1H)-one] | 150 nM | 
11 | Cc1nc(C2CCCCN2C(=O)/C=C/c2cnc3c(c2)CCC(=O)N3)no1 (stereo not shown) [Example 13, 6-{(1E)-3-[2-(5-Methyl-1,2,4-oxadiazol-3-yl)piperidin-1-yl]-3-oxoprop-1-en-1-yl}-3,4-dihydro-1,8-naphthyridin-2(1H)-one] | 4100 nM | 
12 | O=C1CCc2cc(/C=C/C(=O)N3CCC(O)(c4ccccc4)CC3)cnc2N1 [Example 14, 6-{(1E)-3-[4-Hydroxy-4-phenylpiperidin-1-yl]-3-oxoprop-1-en-1-yl}-3,4-dihydro-1,8-naphthyridin-2(1H)-one] | 340 nM | 
13 | O=C1CCc2cc(/C=C/C(=O)N3CCC(Oc4cccnc4)C3)cnc2N1 (stereo not shown) [Example 16, 6-{(1E)-3-Oxo-3-[3-(pyridin-3-yloxy)pyrrolidin-1-yl]prop-1-en-1-yl}-3,4-dihydro-1,8-naphthyridin-2(1H)-one] | 930 nM | 
14 | O=C1CCc2cc(/C=C/C(=O)N3CC(OCc4ccccc4)C3)cnc2N1 [Example 17, 6-{(1E)-3-[3-(Benzyloxy)azetidin-1-yl]-3-oxoprop-1-en-1-yl}-3,4-dihydro-1,8-naphthyridin-2(1H)-one] | 50 nM | 
15 | O=C1CCc2cc(/C=C/C(=O)N3CCCC[C@@H]3c3nc4ccccc4o3)cnc2N1 [Example 18, 6-{(1E)-3-[2-(1,3-Benzoxazol-2-yl)piperidin-1-yl]-3-oxoprop-1-en-1-yl}-3,4-dihydro-1,8-naphthyridin-2(1H)-one] | 1800 nM | 
16 | C=C(C)COC1CN(C(=O)/C=C/c2cnc3c(c2)CCC(=O)N3)C1 [Example 19, 6-[(1E)-3-{3-[(2-Methylprop-2-en-1-yl)oxy]azetidin-1-yl}-3-oxoprop-1-en-1-yl]-3,4-dihydro-1,8-naphthyridin-2(1H)-one] | 170 nM | 
17 | O=C1CCc2cc(/C=C/C(=O)N3CC(OCc4nccs4)C3)cnc2N1 [Example 20, 6-{(1E)-3-Oxo-3-[3-(1,3-thiazol-2-ylmethoxy)azetidin-1-yl]prop-1-en-1-yl}-3,4-dihydro-1,8-naphthyridin-2(1H)-one] | 57 nM | 
18 | CCCCCS(=O)(=O)C1CN(C(=O)/C=C/c2cnc3c(c2)CCC(=O)N3)C1 [Example 22, 6-{(1E)-3-[3-(Pentylsulfonyl)azetidin-1-yl]-3-oxoprop-1-en-1-yl}-3,4-dihydro-1,8-naphthyridin-2(1H)-one] | 8600 nM | 
19 | Nc1ccc(/C=C/C(=O)N2CC(OCc3ccncc3)C2)cn1 [Example 23, 5-{(1E)-3-Oxo-3-[3-(pyridin-4-ylmethoxy)azetidin-1-yl]prop-1-en-1-yl}pyridin-2-amine] | 1800 nM | 
20 | CC(=O)Nc1ccc(/C=C/C(=O)N2CC(OCc3ccncc3)C2)cn1 [Example 24, N-(5-{(1E)-3-Oxo-3-[3-(pyridin-4-ylmethoxy)azetidin-1-yl]prop-1-en-1-yl}pyridin-2-yl)acetamide] | 260 nM | 
21 | COC(=O)C1Cc2cc(/C=C/C(=O)N3CCC(COc4ccc(F)cc4)CC3)cnc2NC1=O (stereo not shown) [Example 25, Methyl 6-[(1E)-3-{4-[(4-fluorophenoxy)methyl]piperidin-1-yl}-3-oxoprop-1-en-1-yl]-2-oxo-1,2,3,4-tetrahydro-1,8-naphthyridine-3-carboxylate] | 60 nM | 
22 | NC(=O)C1Cc2cc(/C=C/C(=O)N3CCC(COc4ccc(F)cc4)CC3)cnc2NC1=O (stereo not shown) [Example 26, 6-[(1E)-3-{4-[(4-Fluorophenoxy)methyl]piperidin-1-yl}-3-oxoprop-1-en-1-yl]-2-oxo-1,2,3,4-tetrahydro-1,8-naphthyridine-3-carboxamide] | 78 nM | 
23 | NC(=O)c1cc2cc(/C=C/C(=O)N3CCC(COc4ccc(F)cc4)CC3)cnc2[nH]c1=O [Example 27, 6-[(1E)-3-{4-[(4-Fluorophenoxy)methyl]piperidin-1-yl}-3-oxoprop-1-en-1-yl]-2-oxo-1,2-dihydro-1,8-naphthyridine-3-carboxamide] | 550 nM | 
24 | O=C1Nc2ncc(/C=C/C(=O)N3CCC(COc4ccc(F)cc4)CC3)cc2CC1CO (stereo not shown) [Example 28, 3-(Hydroxymethyl)-6-[(1E)-3-{4-[(4-fluorophenoxy)methyl]piperidin-1-yl}-3-oxoprop-1-en-1-yl]-3,4-dihydro-1,8-naphthyridin-2(1H)-one] | 81 nM | 
25 | CN1CCC2(CC1)Cc1cc(/C=C/C(=O)N3CC(OCCc4cccs4)C3)cnc1NC2=O [Example 66, (E)-1′-Methyl-6-(3-oxo-3-(3-(2-(thiophen-2-yl)ethoxy)azetidin-1-yl)prop-1-en-1-yl)-1H-spiro[[1,8]naphthyridine-3,4′-piperidin]-2(4H)-one] |  | MIC [2]: 64 µg/mL (≈ 137 µM); MIC [3]: 0.25 µg/mL (≈ 0.536 µM); MIC [4]: 0.25 µg/mL (≈ 0.536 µM); MIC [5]: 0.5 µg/mL (≈ 1.07 µM); MIC [6]: 64 µg/mL (≈ 137 µM); MIC [7]: 64 µg/mL (≈ 137 µM); MIC [8]: 64 µg/mL (≈ 137 µM)
